Reference: the NIST ThermoML archive (doi:10.1016/j.tca.2012.01.013)

Key:
[1] = xn = mol fraction of the nth substance listed; details: 101 kPa, Liquid, Vibrating tube method
[2] = refractive index (Na D-line) (dimensionless); xn = mol fraction of the nth substance listed; details: 101 kPa, Liquid, Standard Abbe refractometry

COC(=O)CCCCC(=O)OC [dimethyl 1,6-hexanedioate] + CCCCO
Details | mass density, [1] [kg/m3] | refractive index, [2]
288.15 K, x1 = 0.0999 | 854.546 | 1.40584
288.15 K, x1 = 0.2004 | 890.617 | 1.40986
288.15 K, x1 = 0.2999 | 921.957 | 1.41343
288.15 K, x1 = 0.4003 | 949.859 | 1.41668
288.15 K, x1 = 0.4999 | 974.548 | 1.41965
288.15 K, x1 = 0.6007 | 996.907 | 1.42221
288.15 K, x1 = 0.6996 | 1016.65 | 1.42454
288.15 K, x1 = 0.7994 | 1034.84 | 1.4267
288.15 K, x1 = 0.8991 | 1051.42 | 1.42867
288.15 K, x1 = 1 | 1066.79 | 1.4305
293.15 K, x1 = 0.0999 | 850.5 | 1.40378
293.15 K, x1 = 0.2004 | 886.373 | 1.40776
293.15 K, x1 = 0.2999 | 917.562 | 1.41135
293.15 K, x1 = 0.4003 | 945.34 | 1.41458
293.15 K, x1 = 0.4999 | 969.9 | 1.41754
293.15 K, x1 = 0.6007 | 992.211 | 1.4201
293.15 K, x1 = 0.6996 | 1011.89 | 1.42243
293.15 K, x1 = 0.7994 | 1030.03 | 1.4246
293.15 K, x1 = 0.8991 | 1046.58 | 1.42658
293.15 K, x1 = 1 | 1061.93 | 1.42842
298.15 K, x1 = 0.0999 | 846.433 | 1.40169
298.15 K, x1 = 0.2004 | 882.112 | 1.40568
298.15 K, x1 = 0.2999 | 913.148 | 1.40925
298.15 K, x1 = 0.4003 | 940.805 | 1.41247
298.15 K, x1 = 0.4999 | 965.3 | 1.41541
298.15 K, x1 = 0.6007 | 987.507 | 1.418
298.15 K, x1 = 0.6996 | 1007.13 | 1.42033
298.15 K, x1 = 0.7994 | 1025.22 | 1.4225
298.15 K, x1 = 0.8991 | 1041.74 | 1.42451
298.15 K, x1 = 1 | 1057.06 | 1.42636
303.15 K, x1 = 0.0999 | 842.341 | 1.39959
303.15 K, x1 = 0.2004 | 877.825 | 1.40356
303.15 K, x1 = 0.2999 | 908.714 | 1.40713
303.15 K, x1 = 0.4003 | 936.253 | 1.41033
303.15 K, x1 = 0.4999 | 960.66 | 1.41329
303.15 K, x1 = 0.6007 | 982.791 | 1.41588
303.15 K, x1 = 0.6996 | 1002.36 | 1.41823
303.15 K, x1 = 0.7994 | 1020.41 | 1.42042
303.15 K, x1 = 0.8991 | 1036.89 | 1.42242
303.15 K, x1 = 1 | 1052.18 | 1.42429
308.15 K, x1 = 0.0999 | 838.219 | 1.39746
308.15 K, x1 = 0.2004 | 873.513 | 1.40144
308.15 K, x1 = 0.2999 | 904.259 | 1.40498
308.15 K, x1 = 0.4003 | 931.684 | 1.4082
308.15 K, x1 = 0.4999 | 955.998 | 1.41109
308.15 K, x1 = 0.6007 | 978.06 | 1.41376
308.15 K, x1 = 0.6996 | 997.573 | 1.41612
308.15 K, x1 = 0.7994 | 1015.59 | 1.41832
308.15 K, x1 = 0.8991 | 1032.04 | 1.42035
308.15 K, x1 = 1 | 1047.31 | 1.42222
313.15 K, x1 = 0.0999 | 834.066 | 1.39533
313.15 K, x1 = 0.2004 | 869.172 | 1.3993
313.15 K, x1 = 0.2999 | 899.775 | 1.40285
313.15 K, x1 = 0.4003 | 927.091 | 1.40603
313.15 K, x1 = 0.4999 | 951.32 | 1.40901
313.15 K, x1 = 0.6007 | 973.316 | 1.41163
313.15 K, x1 = 0.6996 | 992.781 | 1.41402
313.15 K, x1 = 0.7994 | 1010.76 | 1.41623
313.15 K, x1 = 0.8991 | 1027.18 | 1.41828
313.15 K, x1 = 1 | 1042.43 | 1.42017
318.15 K, x1 = 0.0999 | 829.874 | 1.39323
318.15 K, x1 = 0.2004 | 864.799 | 1.39716
318.15 K, x1 = 0.2999 | 895.264 | 1.40072
318.15 K, x1 = 0.4003 | 922.473 | 1.40393
318.15 K, x1 = 0.4999 | 946.622 | 1.40688
318.15 K, x1 = 0.6007 | 968.555 | 1.40952
318.15 K, x1 = 0.6996 | 987.974 | 1.4119
318.15 K, x1 = 0.7994 | 1005.91 | 1.41415
318.15 K, x1 = 0.8991 | 1022.31 | 1.41622
318.15 K, x1 = 1 | 1037.54 | 1.41819
323.15 K, x1 = 0.0999 | 825.64 | 1.39109
323.15 K, x1 = 0.2004 | 860.391 | 1.39505
323.15 K, x1 = 0.2999 | 890.725 | 1.39859
323.15 K, x1 = 0.4003 | 917.832 | 1.40177
323.15 K, x1 = 0.4999 | 941.902 | 1.40473
323.15 K, x1 = 0.6007 | 963.778 | 1.4074
323.15 K, x1 = 0.6996 | 983.155 | 1.40981
323.15 K, x1 = 0.7994 | 1001.06 | 1.41207
323.15 K, x1 = 0.8991 | 1017.44 | 1.41416
323.15 K, x1 = 1 | 1032.64 | 1.41614
